Measurements from US20190110990A1, “LIPOPROTEINS CONTAINING PLATINUM COMPLEXES FOR THE TREATMENT OF CANCER” (UNIVERSITE DE BOURGOGNE, priority 2016, published 2019).

What was measured:
human macrophages = test: ROS production by M2 macrophages (DHE labelling, flow cytometry); assay type: cell-based; details: 2 hours, final cisplatin concentration 25 μM, basal (CTL) 8.2%
Method: After 7 days of culture in human M-CSF from Miltenyi, Biotec. (Macrophage Colony-Stimulating Factor) at 100 ng/ml, human macrophages were differentiated, from monocytes, into M2 alternative phenotype macrophages (protumoral). […] The production of reactive oxygen species (ROS, representative of an anti-tumour action) by the macrophages was then determined by flow cytometry after labelling with Dihydroethidium (DHE). […] Furthermore, the native HDLs, native LDLs and the LDL-Cis had no effect on ROS production by the macrophages.
The same protocol was repeated so as to compare the effect between the HDL-Cis and the oxidised LDL lipoproteins charged with cisplatin (LDLox+Cis) (see FIG. 2C). […] The oxidised LDLs were obtained by incubating native
LDLs (cholesterol, 1 mM) for 24 hours at 37° C. in the presence of copper sulphate (5 μM). After oxidation, the oxidised LDLs are dialysed in a PBS buffer.

[1] = system: SW480 colorectal cancer lines; test: Cell viability of SW480 cells by flow cytometry; assay type: cell-based; details: SW480, 48 hours, final cisplatin concentration 25 μM
Method: The cell viability was then evaluated by flow cytometry.

N.N.[Cl][Pt][Cl] [non-vectorised cisplatin, Cis-diamine-dichloro-platinum (II)]
ROS production / macrophage activation (human macrophages): 18.2%
cancer cell mortality [1]: 41%
